Experiments:
[1] = target: T1, TNAP (Homo sapiens, UniProt P05186); test: Inhibition of TNAP; format: biochemical
T1 sequence (P05186 18-501): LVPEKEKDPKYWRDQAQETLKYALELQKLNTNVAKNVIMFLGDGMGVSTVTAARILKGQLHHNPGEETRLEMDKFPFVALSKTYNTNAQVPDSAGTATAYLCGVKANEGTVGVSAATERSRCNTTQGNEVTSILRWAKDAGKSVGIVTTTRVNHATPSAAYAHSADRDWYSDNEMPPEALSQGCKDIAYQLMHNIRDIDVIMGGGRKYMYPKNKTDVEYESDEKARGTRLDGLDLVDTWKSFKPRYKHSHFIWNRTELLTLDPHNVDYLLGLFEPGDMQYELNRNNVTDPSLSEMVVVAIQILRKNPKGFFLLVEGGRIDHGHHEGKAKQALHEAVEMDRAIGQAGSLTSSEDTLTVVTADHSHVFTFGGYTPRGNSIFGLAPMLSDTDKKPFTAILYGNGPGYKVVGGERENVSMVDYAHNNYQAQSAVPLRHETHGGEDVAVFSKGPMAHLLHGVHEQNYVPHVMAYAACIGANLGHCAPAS

[2] = target: T2, human NPP1 (Homo sapiens, UniProt P22413); test: Hydrolysis by human NPP1; format: in vitro ADME; details: for Relative hydrolysis by NPP1: over 2 h; for Hydrolysis by NPP1: 100 μM, 1 h, compared to ATP
T2 construct: made in house; host or cells: COS-7 cells (transfected; protein extract / cell lysate)
T2 sequence (P22413 1-925): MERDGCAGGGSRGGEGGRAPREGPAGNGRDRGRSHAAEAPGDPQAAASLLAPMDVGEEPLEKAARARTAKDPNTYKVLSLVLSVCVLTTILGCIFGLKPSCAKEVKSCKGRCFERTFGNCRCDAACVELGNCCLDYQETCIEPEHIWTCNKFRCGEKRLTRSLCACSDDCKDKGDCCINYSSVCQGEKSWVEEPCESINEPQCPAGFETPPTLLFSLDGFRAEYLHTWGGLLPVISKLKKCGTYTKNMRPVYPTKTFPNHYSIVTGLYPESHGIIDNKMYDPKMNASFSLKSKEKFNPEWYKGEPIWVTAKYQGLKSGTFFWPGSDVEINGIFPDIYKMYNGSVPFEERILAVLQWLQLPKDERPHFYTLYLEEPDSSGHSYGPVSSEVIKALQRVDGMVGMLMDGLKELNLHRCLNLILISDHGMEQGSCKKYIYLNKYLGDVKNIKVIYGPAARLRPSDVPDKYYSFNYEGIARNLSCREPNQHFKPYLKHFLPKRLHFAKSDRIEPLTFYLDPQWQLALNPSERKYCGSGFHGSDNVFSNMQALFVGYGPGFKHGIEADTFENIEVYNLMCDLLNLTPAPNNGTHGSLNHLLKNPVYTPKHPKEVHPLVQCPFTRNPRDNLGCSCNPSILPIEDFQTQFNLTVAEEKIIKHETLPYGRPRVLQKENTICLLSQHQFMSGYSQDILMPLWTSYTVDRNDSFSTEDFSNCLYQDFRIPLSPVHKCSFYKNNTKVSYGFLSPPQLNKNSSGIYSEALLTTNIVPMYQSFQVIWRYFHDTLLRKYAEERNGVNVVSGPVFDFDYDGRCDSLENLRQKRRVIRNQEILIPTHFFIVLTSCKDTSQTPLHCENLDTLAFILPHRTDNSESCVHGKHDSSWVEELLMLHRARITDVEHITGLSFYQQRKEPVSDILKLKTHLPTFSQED

[3] = target: T2, human NPP1; test: Inhibition of NPP1 activity; format: biochemical; details: pNP-TMP 5·10^−5 M
[4] = target: T3, human NPP3 (Homo sapiens, UniProt O14638); test: Hydrolysis by human NPP3; format: in vitro ADME; details: 100 μM, 1 h, compared to ATP
T3 construct: made in house; host or cells: COS-7 cells (transfected; protein extract / cell lysate)
T3 sequence (O14638 1-875): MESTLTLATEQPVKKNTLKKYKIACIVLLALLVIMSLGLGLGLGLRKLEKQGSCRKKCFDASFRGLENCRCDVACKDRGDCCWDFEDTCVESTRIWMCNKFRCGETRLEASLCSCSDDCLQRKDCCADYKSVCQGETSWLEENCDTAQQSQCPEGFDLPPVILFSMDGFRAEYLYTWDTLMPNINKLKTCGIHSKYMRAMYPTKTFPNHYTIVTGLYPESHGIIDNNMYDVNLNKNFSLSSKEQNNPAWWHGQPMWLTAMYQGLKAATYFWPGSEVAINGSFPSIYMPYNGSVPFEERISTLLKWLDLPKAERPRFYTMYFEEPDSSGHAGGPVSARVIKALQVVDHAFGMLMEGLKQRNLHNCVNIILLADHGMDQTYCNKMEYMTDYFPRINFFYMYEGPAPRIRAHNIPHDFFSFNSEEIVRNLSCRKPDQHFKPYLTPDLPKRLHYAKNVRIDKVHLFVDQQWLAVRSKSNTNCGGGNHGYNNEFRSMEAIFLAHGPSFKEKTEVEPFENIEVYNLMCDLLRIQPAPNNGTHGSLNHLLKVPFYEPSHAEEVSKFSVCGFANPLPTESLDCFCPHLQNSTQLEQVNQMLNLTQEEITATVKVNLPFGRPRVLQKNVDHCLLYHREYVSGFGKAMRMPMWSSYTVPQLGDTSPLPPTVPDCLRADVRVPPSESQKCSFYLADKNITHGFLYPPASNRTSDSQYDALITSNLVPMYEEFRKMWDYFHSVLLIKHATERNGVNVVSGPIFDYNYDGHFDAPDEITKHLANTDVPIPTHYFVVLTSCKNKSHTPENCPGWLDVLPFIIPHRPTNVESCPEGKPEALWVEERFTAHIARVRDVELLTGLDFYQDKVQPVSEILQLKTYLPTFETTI

Q: For Nc1ncnc2c1ncn2[C@@H]1O[C@H](COP(O)(=S)OP(=O)(O)C(Cl)(Cl)P(=O)(O)O)[C@@H](O)[C@H]1O (single isomer, unassigned; isomer a) [APPCCl2P-α-S (isomer A), adenosine 5′-[Pα-thio]-β,γ-(dichloromethylene)triphosphate], which “inhibition of TNAP” value ([1]; 100 μM) is on record?
A: The value was 17%.

Q: adenosine-5′-tetrathiobisphosphonate was tested. Which “Relative hydrolysis by NPP1” value [2] did it give?
A: Its value is “not metabolized at all”.

Q: Nc1ncnc2c1ncn2[C@@H]1O[C@H](COP(O)(=S)OP(=O)(O)CP(=O)(O)O)[C@@H](O)[C@H]1O (single isomer, unassigned; isomer b) [APPCP-α-S (isomer B), adenosine 5′-[Pα-thio]-β,γ-methylenetriphosphate] was tested. Which IC50 ([3]; listed as APPCP-α-S B) did it give?
A: The IC50 was 18.7 ± 0.03 µM.

Q: What about the “Hydrolysis by NPP3” value [4] of the same molecule?
A: Its value is roughly 4%.

Q: And the “Hydrolysis by NPP1” value [2]?
A: The value was roughly 4%.

Q: How did the IC50 [3] turn out when Nc1ncnc2c1ncn2[C@@H]1O[C@H](COP(O)(=S)OP(=O)(O)C(Cl)(Cl)P(=O)(O)O)[C@@H](O)[C@H]1O (single isomer, unassigned; isomer b) [APPCCl2P-α-S (isomer B), adenosine 5′-[Pα-thio]-β,γ-(dichloromethylene)triphosphate] was run?
A: The IC50 was 31.2 ± 0.1 µM.

Q: With Nc1ncnc2c1ncn2[C@@H]1O[C@H](COP(=O)(O)OP(O)(O)=S)[C@@H](O)[C@H]1O [ADP-β-S, adenosine 5′-[β-thio]diphosphate, reference compound] as the molecule, how does the “Relative hydrolysis by NPP1” value [2] read?
A: Its value is “not metabolized at all”.

Q: With “di-adenosine-5′,5″-tetrathiobisphosphonate” as the molecule, how does the “Relative hydrolysis by NPP1” value [2] read?
A: Its value is “not metabolized at all”.

Q: Which results are given for Nc1ncnc2c1ncn2[C@@H]1O[C@H](COP(O)(=S)OP(=O)(O)CP(=O)(O)O)[C@@H](O)[C@H]1O (single isomer, unassigned; isomer a) [APPCP-α-S (isomer A), adenosine 5′-[Pα-thio]-β,γ-methylenetriphosphate]?
A: IC50 ([3]; listed as APPCP-α-S A): 16.3 ± 0.04 µM; Hydrolysis by NPP3 [4]: ~1%; Hydrolysis by NPP1 [2]: fully stable

Q: With Nc1ncnc2c1ncn2[C@@H]1O[C@H](COP(=O)(O)CP(=O)(O)OP(O)(O)=S)[C@@H](O)[C@H]1O [APCPP-γ-S, adenosine 5′-[Pγ-thio]-α,β-methylenetriphosphate] as the molecule, how does the IC50 [3] read?
A: The IC50 was 0.39 ± 0.001 µM.

Q: And the inhibition at 100 µM [1]?
A: Its inhibition at 100 µM is 8%.

— patent US20140378408A1, “NUCLEOSIDE 5'-PHOSPHOROTHIOATE ANALOGUES AND USES THEREOF” (BAR-ILAN UNIVERSITY, an Israeli University, priority 2012, published 2014)
